We go through 2 molecules from EP0017484A1, “2-Imidazoline derivatives, process for the preparation thereof and the pharmaceutical composition of the same” (FUJISAWA PHARMACEUTICAL CO., LTD., priority 1979, dated 1980).

For one experiment, the system named is Sprague-Dawley rats. The experiment is described as follows: Anti-inflammatory activity: carrageenin hind paw edema. Format: in vivo. The conditions noted are these: 100 mg/kg orally 60 minutes before carrageenin (1.5%, 0.1 ml); paw weight after 3 hours versus control animals. As for the experimental part:
Ten Sprague-Dawley rats were used per group. The right hind paw of the rat was injected subcutaneously under the plantar surface with 0.1 ml of carrageenin (1.5%). After 3 hours, the animals were sacrificed. The normal and edematous hind paws were cut off at the tibio-dorsal joint and weighed. The difference in the weight of edematous paw and that of normal paw was a measure of the edema. The test compound (100 mg/kg) was administered orally 60 minutes before the irritating agent. Paw swelling of treated animals was compared with that of control animals.

The subject of a further experiment is male ddy strain mice. The experiment is described as follows: Analgesic activity: acetic acid writhing syndrome. Format: in vivo. The conditions noted are these: Mus musculus, po; orally 60 minutes before i.p. 0.6% acetic acid; writhing observed from 3 to 13 minutes; Litchfield-Wilcoxon method. As for the experimental part:
Ten male ddy strain mice were used for each dose. To estimate the frequency of writhing syndrome, the animals were observed from 3 to 13 minutes after an intraperitoneal injection of 0.2 ml/10 g of 0.6% acetic acid. The drugs were given orally 60 minutes before acetic acid. The frequency of writhing syndrome in the treated animals was compared with that in the non-treated control animals.
The ED50 value was calculated according to Litchfield-Wilcoxon method.

In turn, `Cc1ccc(NC2=NCCN2)c(Oc2ccccc2)c1` [2-(2-Phenoxy-4-methylphenyl)amino-2-imidazoline] registered an Inhibitory effect with Sprague-Dawley rats of 48.4%.

`COc1cc(Oc2ccccc2NC2=NCCN2)cc(OC)c1OC` [2-[2-(3,4,5-Trimethoxyphenoxy)phenyl]amino-2-imidazoline] came in with a 50% effective dose (ED50) in the experiment with male ddy strain mice of 50.1 mg/kg.
